Read-outs that look alike come from different tables or passages of the source.
Columns and labels:
C. elegans [1] = assay: Effects of 5-HT receptor class-selective agonists and antagonists on C. elegans pharyngeal pumping and locomotion on agar; type: in vivo
Description: For the experiments described below C. elegans of the Bristol N2 strain (Brenner, S. 1974. The genetics of Caenorhabditis elegans, Genetics, 77: 71-94) were cultured at room temperature on HMS174 E. coli bacteria (Campbell J. L. et al. 1978. Genetic recombination and complementation between bacteriophage T7 and cloned fragments of T77 DNA. Proc. Natl. Acad. Sci. USA. 75: 2276-2280) on NGM agar (Sulston, J. and Hodgkin, J. 1988, “Methods” in The nematode Caenorhabditis elegans. W. B. Wood pp 587-606. Cold Spring Harbor Laboratory Press, New York) unless otherwise described.
Studies were therefore conducted wherein selective 5-HT1, 5-HT2 and 5-HT3 agonists were applied at known concentrations to agar on which C. elegans was held in the absence of food and the effects on movement and pharyngeal pumping monitored over a period of 2-3 hours.
Studies were also conducted to investigate the ability of selective vertebrate 5-HT3 antagonists to inhibit the 5-HT-induced increase in pharyngeal pumping.

Myzus persicae = assay: Green Peach Aphid artificial diet sachet bioassay, growth and survival; type: in vivo; conditions: for Mean number of surviving aphids (out of 5) / Mean relative growth rate of survivors: after 5 days
Description: The effects of MDL 72222 on Green Peach Aphid (Myzus persicae) was also tested. The bioassay involved testing compounds at 3 different concentrations (1 mM, 100 μM, 10 μM) in an artificial diet. Compounds that were not water-soluble were forced into solution using a non-toxic surfactant. For each compound, each concentration was tested in 10 replicate assays. In each replicate, 5 aphids were allowed to feed on the test solution in a Parafilm® sachet for a period of 5 days. Survivorship and aphid growth rate were compared among the test concentrations and a control containing only the artificial diet with surfactant.

C. elegans [2] = assay: Dose-response of serotonin-stimulated pharyngeal pumping of C. elegans; type: in vivo; conditions: for IC50: in the presence of 0.325 mM serotonin (FIG. 2), read-out: IC50, inhibition of serotonin-stimulated pharyngeal pumping
Description: FIG. 1 provides dose-response curves for serotonin action on pharyngeal pumping. […] Any minor differences between the curves of FIGS. 1a and 1b are accounted for by the differences in experimental detail and the fact that in the microscopical assay, the rate of pumping is counted over a period of 1-3 minutes, whilst in the plate-based assays the fluorescence intensity represents the accumulation of ingested material over 60 minutes.
At this concentration of 5-HT, the IC50 for MDL72222 is approximately 30 μM, i.e. 10×lower than the EC50 for 5-HT.

C. elegans [3] = assay: Chronic exposure protocol: nematode growth and survival on NGM agar containing the compound; type: in vivo; conditions: for mortality at 5 µM / mortality at 10 µM / mortality at 20 µM / mortality at 40 µM / mortality at 81 µM / mortality at 162 µM / mortality at 325 µM: Caenorhabditis elegans
Description: Because the pharyngeal pump is essential for nematode feeding and the maintenance of the nematode “hydrostatic skeleton” [Brownlee, D. J. A. et al. 1997, supra] and a previously established target organ for nematicides, an investigation was conducted to assess whether the 5-HT3-selective antagonists would function as nematicidal agents in a chronic exposure protocol.
C. elegans nematodes were cultured on the HMS/174 strain of E. coli [Campbell, J. L. et al. 1978. Genetic recombination and complementation between bacteriophage T7 and cloned fragments of T7 DNA. Proc. Natl. Acad. Sci. USA. 75: 2276-2280] on NGM agar [Sulston, J. and Hodgkin, J. 1988, supra] in the wells of six well tissue culture cluster, 2 ml agar per well. MDL72222 was incorporated into the agar at the specified concentrations using ≦65 μl of acetone as a carrier. A control well contained 65 μl of acetone only. Between five and 11 L1 stage C. elegans were transferred to each well and the wells were incubated at 22° C. for up to four weeks. All concentrations >10 μM MDL 72222 caused developmental delays. Concentrations of MDL 72222 down to 80 μM caused 40 % mortality within three days. […] The bacterial food therefore remained uneaten for prolonged periods.
Concentrations of MDL72222 down to 20 μM caused 90-100% mortality within 21 days and concentrations as low as 10 μM and 5 μM caused 50-100% mortality at 21 days. At the lowest concentrations of MDL72222, nematode death was delayed until after the bacterial food had been consumed. […] The experiment shown in Table 3 was repeated with essentially identical results.

Helicoverpa armigera = assay: Growth of neonate H. armigera on surface-contaminated artificial diet; type: in vivo; conditions: for Mean weight of larva (mg) at 7 days: 24 larvae; for activity at 100 µM / activity at 1000 µM: Helicoverpa armigera, 168 h, read-out: % of control weight
[4] = test system: snail 5-HT3-like ion channel; conditions: Green et al. 1996; read-out: IC50 on the snail 5-HT3-like ion channel / 5-HT gated conductance; cited from earlier work
[5] = Table 3 experiment, 0.325 mM antagonist plus 0.325 mM serotonin
[6] = Table 3 experiment, 0.325 mM, nothing else added
[7] = 72 h, read-out: % Mortality - 3 days
[8] = 504 h, read-out: % Mortality - 21 days
[9] = 0.1 mM by surface contamination of diet
[10] = 1.0 mM by surface contamination of diet
[11] = Table 2 experiment, 0.325 mM (each), nothing else added

SMILES: Cc1[nH]c2ccc(O)cc2c1CCN.Cl [2-methyl-5-hydroxytryptamine hydrochloride]
- Effect on locomotion (C. elegans [1]; agonist 3 mM): Locomotion normal,
- Pumping rate (min-1) mean ± s.d. (C. elegans [1]; agonist 3 mM in agar, absence of food, 2-3 hours): 130 ± 27 min⁻¹

SMILES: CN1[C@@H]2CC[C@H]1C[C@@H](OC(=O)c1cc(Cl)cc(Cl)c1)C2 [MDL 72222]
- Pumping rate (min-1) mean ± s.d. (C. elegans [1]; [5]): 2 ± 2 min⁻¹
- Pumping rate (min-1) mean ± s.d. (C. elegans [1]; [6]): 1 ± 1 min⁻¹
- Mean number of surviving aphids (out of 5) (Myzus persicae; 0.01 mM in artificial diet): 4.6
- Mean relative growth rate of survivors (Myzus persicae; 0.01 mM in artificial diet): 0.0339
- Mean number of surviving aphids (out of 5) (Myzus persicae; 0.1 mM in artificial diet): 3.4
- Mean relative growth rate of survivors (Myzus persicae; 0.1 mM in artificial diet): 0.0200
- Mean number of surviving aphids (out of 5) (Myzus persicae; 1 mM in artificial diet): 0.9
- Mean relative growth rate of survivors (Myzus persicae; 1 mM in artificial diet): 0.0383
- IC50 (C. elegans [2]; Caenorhabditis elegans): ~25 µM
- IC50 (C. elegans [2]): ~30 µM
- Time to consumption of all bacteria (C. elegans [3]; 5 μM in agar): 7 days
- Time to consumption of all bacteria (C. elegans [3]; 10 μM in agar): 8 days
- Time to consumption of all bacteria (C. elegans [3]; 20 μM in agar): 9 days
- Time to consumption of all bacteria (C. elegans [3]; 40 μM in agar): 10 days
- Time to consumption of all bacteria (C. elegans [3]; 81 μM in agar): 16 days
- Time to consumption of all bacteria (C. elegans [3]; 162 μM in agar): >28 days
- Time to consumption of all bacteria (C. elegans [3]; 325 μM in agar): >28 days
- mortality at 5 µM (C. elegans [3]; [7]): 0%
- mortality at 10 µM (C. elegans [3]; [7]): 0%
- mortality at 20 µM (C. elegans [3]; [7]): 0%
- mortality at 40 µM (C. elegans [3]; [7]): 0%
- mortality at 81 µM (C. elegans [3]; [7]): 42%
- mortality at 162 µM (C. elegans [3]; [7]): 64%
- mortality at 325 µM (C. elegans [3]; [7]): 55%
- mortality at 5 µM (C. elegans [3]; [8]): 100%
- mortality at 10 µM (C. elegans [3]; [8]): > 50%
- mortality at 20 µM (C. elegans [3]; [8]): 100%
- mortality at 40 µM (C. elegans [3]; [8]): > 90%
- mortality at 81 µM (C. elegans [3]; [8]): > 90%
- mortality at 162 µM (C. elegans [3]; [8]): > 90%
- mortality at 325 µM (C. elegans [3]; [8]): 100%
- Concentrations that caused developmental delays (C. elegans [3]; L1 stage seeded, 22° C.): > 10 µM
- Mean weight of larva (mg) at 7 days (Helicoverpa armigera; [9]): 51 mg
- Mean weight of larva (mg) at 7 days (Helicoverpa armigera; [10]): 54 mg
- activity at 100 µM (Helicoverpa armigera; 0.1 mM by surface contamination of diet, 7 days): 70%
- activity at 1000 µM (Helicoverpa armigera; 1.0 mM by surface contamination of diet, 7 days): 75%

SMILES: Cl.Clc1cccc(N2CCNCC2)c1 [m-CPP hydrochloride]
- Effect on locomotion (C. elegans [1]; agonist 1 mM (each, if combined)): Locomotion inhibited
- Pumping rate (min-1) mean ± s.d. (C. elegans [1]; agonist 1 mM (each, if combined) in agar, absence of food, 2-3 hours): 0 min⁻¹
- Effect on locomotion (C. elegans [1]; agonist 6 mM (each, if combined)): Locomotion inhibited
- Pumping rate (min-1) mean ± s.d. (C. elegans [1]; agonist 6 mM (each, if combined) in agar, absence of food, 2-3 hours): 0 min⁻¹

SMILES: Cc1nccn1CC1CCc2c(c3ccccc3n2C)C1=O (stereo not shown) [ondansetron]
- Effect on locomotion (C. elegans [1]; [5]): Nematodes moved normally
- Pumping rate (min-1) mean ± s.d. (C. elegans [1]; [5]): 32 ± 29 min⁻¹
- Effect on locomotion (C. elegans [1]; [6]): Nematodes moved normally
- Pumping rate (min-1) mean ± s.d. (C. elegans [1]; [6]): 0 ± 0 min⁻¹
- Effect on M. persicae (Myzus persicae; 1 mM, 100 μM, 10 μM in artificial diet, 5 days): no discernible effect
- IC50 [4]: 10 µM
- Effect on growth and development of neonate H. armigera (Helicoverpa armigera; artificial diet, surface contamination): no discernible effect

SMILES: NCCc1c[nH]c2ccc(O)cc12 [serotonin, 5-Hydroxytryptamine]
- Effect on locomotion (C. elegans [1]; [11]): Nematodes moved normally
- Pumping rate (min-1) mean ± s.d. (C. elegans [1]; [11]): 129 ± 6 min⁻¹
- Effect on locomotion (C. elegans [1]; [6]): Nematodes moved normally
- Pumping rate (min-1) mean ± s.d. (C. elegans [1]; [6]): 54 ± 45 min⁻¹
- EC50 (C. elegans [2]; Caenorhabditis elegans, read-out: EC50 of 5-HT on pharyngeal pumping): ~325 µM
- Mean weight of larva (mg) at 7 days (Helicoverpa armigera; [9]): 85 mg
- Mean weight of larva (mg) at 7 days (Helicoverpa armigera; [10]): 85 mg
- activity at 100 µM (Helicoverpa armigera): 116%
- activity at 1000 µM (Helicoverpa armigera): 116%

Source: patent publication US20030186370A1, “5ht3 receptors of nematodes, polynucleotide molecules encoding same, and antagonists thereof” (priority 2000, published 2003)
